Legend:
A549 cells = assay: Lactate dehydrogenase (LDH) release, A549 cells; format: cell-based, human; conditions: 10 μM
Experimental: (§1) (A) SeAx or HaCat cells cultured in the absence of 10% FBS were left untreated or treated with 4 μM or 10 μM, respectively, of the Antp-AAC-11-LZ (363-399) peptide for the indicated durations. Cells were then analyzed by flow cytometry for PI staining. The results represent the mean number of PI-positive cells±S.D. from at least three independent experiments. (B) A549 and HaCat cells were plated at a densities of 4.5×10^3 in 96 well plates (100 μL total volume per well) and allowed to attach overnight in a 37° C. incubator (5% CO2). Media was removed from cells and replaced with media containing 10 μM Antp-AAC-11-LZ (363-399) peptide (100 μL total volume per well) peptide and the plates were incubated for the indicated durations. Lactate dehydrogenase (LDH) activity released in the culture medium was then assessed and data expressed as a percentage of the maximal level (Max) of LDH activity determined after total cell lysis±S.D. from at least three independent experiments.
(A) SeAx cultured in the absence of 10% FBS were left untreated or treated with 4 μM of the indicated Antp-AAC-11-LZ peptides for various times. Cells were then analyzed by flow cytometry for PI staining. The results represent the mean number of PI-positive cells±S.D. (B) A549 cells were plated at a densities of 4.5×10^3 in 96 well plates (100 μL total volume per well) and allowed to attach overnight in a 37° C. incubator (5% CO2). Media was removed from cells and replaced with media containing the indicated Antp-AAC-11-LZ peptides at 10 μM (100 μL total volume per well) peptide and the plates were incubated for the indicated durations. Lactate dehydrogenase (LDH) activity released in the culture medium was then assessed and data expressed as a percentage of the maximal level (Max) of LDH activity determined after total cell lysis±S.D.

SeAx cells = assay: Propidium iodide (PI) uptake, flow cytometry, SeAx cells; format: cell-based; conditions: 4 μM
Experimental: as §1, with “Media was removed from cells and replaced with media containing 10 μM Antp-AAC-11-LZ (363-399) peptide (100 μL total volume per well) peptide and the plates were incubated for the indicated durations.” left out
(A) SeAx cultured in the absence of 10% FBS were left untreated or treated with 4 μM of the indicated Antp-AAC-11-LZ peptides for various times. Cells were then analyzed by flow cytometry for PI staining. […] Lactate dehydrogenase (LDH) activity released in the culture medium was then assessed and data expressed as a percentage of the maximal level (Max) of LDH activity determined after total cell lysis±S.D.
Cell death was evaluated upon staining with propidium iodide and flow cytometry analysis. […]

[1] = system: leukemic cells isolated from hMRP8-PML/RARα transgenic mice; assay: Acute promyelocytic leukemia (APL) mouse model, survival; format: in vivo
Experimental: FIG. 9: Antp-AAC-11-LZ (363-399) peptide treatment of leukemic mice protects against disease progression. Mice were challenged with 10^4 leukemic cells isolated from hMRP8-PML/RARα transgenic mice, allowed to engraft for 10 d, and were then injected intraperitonaly each day for 7 consecutive days with Antp-AAC-11-LZ (363-399) peptide (1.8 mg/kg) or vehicle (normal saline solution), or subcutaneously implanted with a 21-d release pellet containing 5 mg ATRA (n=6 for each treatment). Mice were monitored for survival.
We use an established in vivo APL model based on syngenic grafts of leukemic blasts from hMRP8-PML/RARα transgenic mice, as described by Brown et al. (Brown et al., 1997). This model mimics human APL, both in its biological characteristics and its response to conventional therapeutic drugs such as all-trans retinoic acid (ATRA) and 100% of the mice die of the disease (Brown et al., 1997; Kogan et al., 2000; Lallemand-Breitenbach et al., 1999). […] leukemic cells isolated from bone marrow, spleen, or lymph nodes of leukemic hMRP8-PML/RARα transgenic mice (Brown et al., 1997) were injected into the tail vein of 6-7 week old syngeneic FVB/N mice. Establishment of leukemia was assessed by the appearance of high leukocyte and low platelet counts at around day 8 (Brown et al., 1997). Ten days after transplantation, mice implanted with leukemic cells were randomly assigned to either type of treatment (n=6). Antp-AAC-11-LZ (363-399) peptide (1.8 mg/kg) or vehicle (normal saline solution) was injected intraperitonaly each day for 7 consecutive days. Retinoic acid was administrated by subcutaneous implantation of a 21-d release pellet containing 5 mg ATRA (Innovative Research of America). Mice were then monitored for survival.

D3H2LN cells [2] = assay: Matrigel invasion assay, D3H2LN cells; format: cell-based; conditions: 2 μM, toward 10% FBS, 24 h, FIG. 7B
Experimental: FIG. 7: Antp-AAC-11-LZ (363-399) peptide inhibits cell migration and invasion. (A) D3H2LN cells were added to the upper well of modified Boyden chamber (transwell) plates with a vehicle or with either 2 μM of the Antp-AAC-11-LZ (363-399) peptide or the Antp-only peptide and subjected to a transwell migration assay as described under Materials and methods. The cells were allowed to migrate toward 10% FBS for 12 […]h. Triplicate wells were used for each of three independent experiments. The results are expressed relative to the migration of the untreated cells (=100%). Column: Mean of three experiments. Bar: s.e. P-value was determined by Student's t-test (*P<0.01). (B) D3H2LN cells were seeded in a Matrigel-coated Boyden chamber with a vehicle or with either 2 μM of the Antp-AAC-11-LZ (363-399) peptide or the Antp-only peptide and subjected to a transwell migration assay as described under Materials and methods. The cells were allowed to migrate toward 10% FBS for 24 […]h. Triplicate wells were used for each of three independent experiments. The results are expressed relative to the migration of the untreated cells (=100%). Column: Mean of three experiments. Bar: s.e. P-value was determined by Student's t-test (*P<0.01) […]

D3H2LN cells [3] = assay: Proliferation of D3H2LN cells (not showed); format: cell-based

In the case of “Ac-RQIKIWFKKQNRRMKWKKAKLNAEKLKDFKIRLQYFARGLQVYIRQLRLALQGKT-NH2 [Antp-AAC-11-LZ (363-399)]”, the LDH release (A549 cells; 5 minutes, relative to maximal LDH release (0.8% Triton X-100)) is reported as roughly 40%, the LDH release (A549 cells; 1 hour, compared to maximum LDH release (0.8% Triton X-100)) is reported as 80% and the “LDH release into cell supernatants, in words” value (A549 cells; time course) is reported as “drastic increase”. The PI positive cells (SeAx cells; 5 minutes, absence of 10% FBS) was 90%, the “PI positive cells, course after 5 minutes” value (SeAx cells; up to 60 minutes) was “remained unchanged” and the “mice surviving up to 67 d” value ([1]; n=6 per treatment) was “Four of 6”. The “mice surviving up to 76 d” value ([1]; n=6 per treatment) was 2, the mean survival time ([1]; peptide 1.8 mg/kg i.p. daily for 7 days, ATRA 5 mg 21-d release pellet s.c., from day 10 after graft, n=6) was 68.5 days and the cell invasion (D3H2LN cells [2]) was “prevented invasion”. For the same substance, the “proliferation at the concentrations used for migration” value (D3H2LN cells [3]) was “neither the Antp-AAC-11-LZ (363-399) or TAT-AAC-11-LZ (363-399) peptides impaired proliferation”.

From patent US10358469B2, “Methods and pharmaceutical compositions for the treatment of cancer” (INSERM (INSTITUT NATIONAL DE LA SANTÉ ET DE LA RECHERCHE …, priority 2014, dated 2019)
